Data on one compound can be found in BindingDB's records for PubMed 20033049 (Institute).

The nature of test [1]: Inhibition of TEL fused BMX (unknown origin) transformed in mouse BaF3 cells.
Test [2] can be described thus: Inhibition of TEL fused BLK (unknown origin) transformed in mouse BaF3 cells.

For orientation: IC50 means the concentration needed to halve the response being measured. A high value points to weaker potency in that assay. For `C=CC(=O)Nc1cccc(Oc2nc(Nc3ccc(N4CCN(C)CC4)cc3)ncc2Cl)c1`, the IC50 was 0.4 nM in test [1] and 20 nM in test [2].
